According to the Kinase Knowledgebase extract (Sharma et al. 2016):

target: EGFR (UniProt P00533); conditions: concentration not given here
Sequence (P00533 whole entry, looked up): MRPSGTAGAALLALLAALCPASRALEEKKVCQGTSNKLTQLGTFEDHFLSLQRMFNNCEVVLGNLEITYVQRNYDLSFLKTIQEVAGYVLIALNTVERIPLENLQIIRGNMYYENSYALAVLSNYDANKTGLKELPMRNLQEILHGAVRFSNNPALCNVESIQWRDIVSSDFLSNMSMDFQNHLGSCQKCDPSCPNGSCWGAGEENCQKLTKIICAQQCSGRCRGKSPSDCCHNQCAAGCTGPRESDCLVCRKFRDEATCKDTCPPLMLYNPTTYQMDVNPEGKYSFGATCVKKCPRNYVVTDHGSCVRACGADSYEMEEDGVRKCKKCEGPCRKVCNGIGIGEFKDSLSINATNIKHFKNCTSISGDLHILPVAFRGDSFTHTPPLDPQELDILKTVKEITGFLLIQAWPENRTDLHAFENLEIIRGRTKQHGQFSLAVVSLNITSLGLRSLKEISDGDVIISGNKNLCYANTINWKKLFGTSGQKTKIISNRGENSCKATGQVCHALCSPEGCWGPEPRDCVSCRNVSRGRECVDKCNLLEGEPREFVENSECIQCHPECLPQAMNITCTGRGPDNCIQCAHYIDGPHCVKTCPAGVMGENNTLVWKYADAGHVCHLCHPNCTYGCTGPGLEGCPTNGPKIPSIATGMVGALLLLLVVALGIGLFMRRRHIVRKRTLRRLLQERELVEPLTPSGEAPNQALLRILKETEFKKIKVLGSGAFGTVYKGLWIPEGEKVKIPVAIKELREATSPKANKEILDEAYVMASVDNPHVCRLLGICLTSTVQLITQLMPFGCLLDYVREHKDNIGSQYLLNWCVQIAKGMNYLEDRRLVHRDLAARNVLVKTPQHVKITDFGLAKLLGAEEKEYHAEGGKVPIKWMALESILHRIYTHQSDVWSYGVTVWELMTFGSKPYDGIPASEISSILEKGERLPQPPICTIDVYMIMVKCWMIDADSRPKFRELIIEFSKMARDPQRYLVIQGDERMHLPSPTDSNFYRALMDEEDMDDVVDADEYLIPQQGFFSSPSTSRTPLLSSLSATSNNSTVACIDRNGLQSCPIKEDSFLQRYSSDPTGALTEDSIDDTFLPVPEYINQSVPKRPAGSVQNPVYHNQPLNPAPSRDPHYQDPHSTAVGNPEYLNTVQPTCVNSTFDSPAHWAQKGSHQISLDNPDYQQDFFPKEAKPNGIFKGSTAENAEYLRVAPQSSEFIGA

Going from CCC(=O)Nc1ccc(O)c(C(=O)Nc2cccc(C(=O)N(CC)CC)c2)c1 to CCC(=O)Nc1ccc(O)c(C(=O)Nc2ccc(Oc3ccccc3)cc2)c1, the inhibition rises from 46.6% to 48.5%.

Going from C=CC(=O)Nc1ccc(OC)c(C(=O)Nc2cccc(C(O)c3ccccc3)c2)c1 (centres undefined) to C=CC(=O)Nc1ccc(OC)c(C(=O)Nc2cccc(Oc3ccccc3)c2)c1, the inhibition falls from 5.84% to 1.59%.
